Source: ChEMBL document CHEMBL1201862, “PubChem BioAssay data set” (2004)
Where “and” joins values, the source holds several entries; their conditions need not be identical. Equal values may be shown once.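 Method: 48-hour compound exposure of cells in 96-well plates, five concentrations, linear interpolation of endpoints. GI50 is the concentration that inhibits growth by half.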 Calls of active or inactive are those of the source. No stated cut-off is given here; in the data, active = GI50 up to about 1.1 µM and inactive = higher.

Assays:
Assay in all cases: NCI tumour cell line growth inhibition, 48 h
[1] = tested on: SF-539
[2] = tested on: U-251
[3] = tested on: SNB-75
[4] = tested on: SK-MEL-28
[5] = tested on: SK-OV-3
[6] = tested on: SNB-19
[7] = tested on: 786-0
[8] = tested on: NCI-H226
[9] = tested on: OVCAR-8
[10] = tested on: COLO 205
[11] = tested on: MDA-N
[12] = tested on: NCI-H522
[13] = tested on: SN12C
[14] = tested on: UACC-257
[15] = tested on: SK-MEL-5
[16] = tested on: PC-3
[17] = tested on: SF-295
[18] = tested on: TK-10
[19] = tested on: OVCAR-4
[20] = tested on: DU-145
[21] = tested on: MOLT-4
[22] = tested on: ACHN
[23] = tested on: MDA-MB-435
[24] = tested on: MDA-MB-231
[25] = tested on: UACC-62
[26] = tested on: M14
[27] = tested on: HCT-15
[28] = tested on: UO-31
[29] = tested on: HT-29
[30] = tested on: A549
[31] = tested on: HOP-62
[32] = tested on: K562
[33] = tested on: Hs-578T
[34] = tested on: HOP-92
[35] = tested on: IGROV-1
[36] = tested on: OVCAR-3
[37] = tested on: SF-268
[38] = tested on: LOX IMVI
[39] = tested on: EKVX
[40] = tested on: KM12
[41] = tested on: RXF 393
[42] = tested on: A498
[43] = tested on: OVCAR-5
[44] = tested on: T47D
[45] = tested on: HL-60
[46] = tested on: SR
[47] = tested on: NCI/ADR-RES
[48] = tested on: CAKI-1
[49] = tested on: NCI-H460
[50] = tested on: NCI-H23
[51] = tested on: HCC 2998
[52] = tested on: SK-MEL-2
[53] = tested on: HCT-116
[54] = tested on: MCF7
[55] = tested on: SW-620
[56] = tested on: BT-549
[57] = tested on: CCRF-CEM
[58] = tested on: RPMI-8226
[59] = tested on: Malme-3M

Cc1cn(C2CCC(CO)(CF)O2)c(=O)[nH]c1=O (stereo unspecified)
GI50 [1]: > 100 µM (inactive) | GI50 [2]: > 100 µM (inactive) | GI50 [3]: > 100 µM (inactive) and 96.6 µM (inactive) | GI50 [4]: > 100 µM (inactive) | GI50 [5]: > 100 µM (inactive) | GI50 [6]: > 100 µM (inactive) | GI50 [7]: > 100 µM (inactive) | GI50 [8]: > 100 µM (inactive) | GI50 [9]: > 100 µM (inactive) | GI50 [10]: > 100 µM (inactive) | GI50 [11]: > 100 µM (inactive) | GI50 [12]: > 100 µM (inactive) | GI50 [13]: > 100 µM (inactive) | GI50 [14]: > 100 µM (inactive) | GI50 [15]: > 100 µM (inactive) | GI50 [16]: > 100 µM (inactive) | GI50 [17]: > 100 µM (inactive) | GI50 [18]: > 100 µM (inactive) | GI50 [19]: > 100 µM (inactive) | GI50 [20]: > 100 µM (inactive) | GI50 [21]: > 100 µM (inactive) | GI50 [22]: > 100 µM (inactive) | GI50 [23]: > 100 µM (inactive) | GI50 [24]: > 100 µM (inactive) | GI50 [25]: > 100 µM (inactive) | GI50 [26]: > 100 µM (inactive) | GI50 [27]: > 100 µM | GI50 [28]: > 100 µM (inactive) | GI50 [29]: > 100 µM (inactive) | GI50 [30]: > 100 µM (inactive) | GI50 [31]: > 100 µM (inactive) | GI50 [32]: > 100 µM (inactive) | GI50 [33]: > 100 µM (inactive) | GI50 [34]: > 100 µM (inactive) | GI50 [35]: > 100 µM (inactive) | GI50 [36]: > 100 µM (inactive) | GI50 [37]: > 100 µM (inactive) | GI50 [38]: > 100 µM (inactive) | GI50 [39]: > 100 µM (inactive) | GI50 [40]: > 100 µM (inactive) | GI50 [41]: > 100 µM (inactive) | GI50 [42]: > 100 µM (inactive) | GI50 [43]: > 100 µM (inactive) | GI50 [44]: > 100 µM (inactive) | GI50 [45]: > 100 µM (inactive) | GI50 [46]: > 100 µM (inactive) | GI50 [47]: > 100 µM (inactive) | GI50 [48]: > 100 µM (inactive) | GI50 [49]: > 100 µM (inactive) | GI50 [50]: > 100 µM (inactive) | GI50 [51]: > 100 µM (inactive) | GI50 [52]: > 100 µM (inactive) | GI50 [53]: > 100 µM (inactive) | GI50 [54]: > 100 µM (inactive) | GI50 [55]: > 100 µM (inactive) | GI50 [56]: > 100 µM (inactive) | GI50 [57]: > 100 µM (inactive) | GI50 [58]: > 100 µM (inactive)

O=C(O)CN1CCN(CC(=O)O)CCN(CC(=O)O)CCN(CC(=O)O)CC1 [TETRAXETAN]
GI50 [1]: > 100 µM (inactive) | GI50 [2]: > 100 µM (inactive) | GI50 [3]: > 100 µM (inactive) | GI50 [6]: > 100 µM (inactive) | GI50 [7]: > 100 µM (inactive) | GI50 [8]: > 100 µM (inactive) | GI50 [9]: > 100 µM (inactive) | GI50 [10]: > 100 µM (inactive) | GI50 [11]: > 100 µM (inactive) | GI50 [12]: > 100 µM (inactive) | GI50 [13]: > 100 µM (inactive) | GI50 [14]: > 100 µM (inactive) | GI50 [15]: > 100 µM (inactive) | GI50 [16]: > 100 µM (inactive) | GI50 [17]: > 100 µM (inactive) | GI50 [18]: > 100 µM (inactive) | GI50 [19]: > 100 µM (inactive) | GI50 [20]: > 100 µM (inactive) | GI50 [21]: > 100 µM (inactive) | GI50 [22]: > 100 µM (inactive) | GI50 [23]: > 100 µM (inactive) | GI50 [24]: > 100 µM (inactive) | GI50 [25]: > 100 µM (inactive) | GI50 [26]: > 100 µM (inactive) | GI50 [27]: > 100 µM | GI50 [28]: > 100 µM (inactive) | GI50 [29]: > 100 µM (inactive) | GI50 [30]: > 100 µM (inactive) | GI50 [31]: > 100 µM (inactive) | GI50 [32]: > 100 µM (inactive) | GI50 [33]: > 100 µM (inactive) | GI50 [34]: > 100 µM (inactive) | GI50 [35]: > 100 µM (inactive) | GI50 [36]: > 100 µM (inactive) | GI50 [37]: > 100 µM (inactive) | GI50 [38]: > 100 µM (inactive) | GI50 [39]: > 100 µM (inactive) | GI50 [40]: > 100 µM (inactive) | GI50 [41]: > 100 µM (inactive) | GI50 [42]: > 100 µM (inactive) | GI50 [43]: > 100 µM (inactive) | GI50 [44]: > 100 µM (inactive) | GI50 [45]: > 100 µM (inactive) | GI50 [46]: > 100 µM (inactive) | GI50 [47]: > 100 µM (inactive) | GI50 [48]: > 100 µM (inactive) | GI50 [49]: > 100 µM (inactive) | GI50 [50]: > 100 µM (inactive) | GI50 [51]: > 100 µM (inactive) | GI50 [52]: > 100 µM (inactive) | GI50 [53]: > 100 µM (inactive) | GI50 [54]: > 100 µM (inactive) | GI50 [55]: > 100 µM (inactive) | GI50 [56]: > 100 µM (inactive) | GI50 [57]: > 100 µM (inactive) | GI50 [58]: > 100 µM (inactive)

CC12CCC(C1)C(C)(C)C2OC(=O)c1ccccc1N (stereo unspecified)
GI50 [1]: 18.6 µM (inactive) | GI50 [2]: 17.6 µM (inactive) | GI50 [3]: 20.5 µM (inactive) | GI50 [4]: 16.7 µM (inactive) | GI50 [5]: 16.7 µM (inactive) | GI50 [6]: 17.2 µM (inactive) | GI50 [7]: 16.6 µM (inactive) | GI50 [9]: 18.5 µM (inactive) | GI50 [10]: 15.4 µM (inactive) | GI50 [11]: 15.5 µM (inactive) | GI50 [12]: 10.1 µM (inactive) | GI50 [13]: 17.6 µM (inactive) | GI50 [14]: 15.4 µM (inactive) | GI50 [15]: 17 µM (inactive) | GI50 [16]: 14.3 µM (inactive) | GI50 [17]: 17.3 µM (inactive) | GI50 [18]: 16.9 µM (inactive) | GI50 [20]: 16.4 µM (inactive) | GI50 [59]: 13.4 µM (inactive) | GI50 [21]: 6 µM (inactive) | GI50 [22]: 17.5 µM (inactive) | GI50 [23]: 16.7 µM (inactive) | GI50 [24]: 15.9 µM (inactive) | GI50 [25]: 15.5 µM (inactive) | GI50 [26]: 16.6 µM (inactive) | GI50 [27]: 15.9 µM | GI50 [28]: 17 µM (inactive) | GI50 [29]: 14.9 µM (inactive) | GI50 [30]: 14.8 µM (inactive) | GI50 [31]: 16.9 µM (inactive) | GI50 [32]: 14.9 µM (inactive) | GI50 [33]: 15.6 µM (inactive) | GI50 [34]: 11.8 µM (inactive) | GI50 [35]: 25.8 µM (inactive) | GI50 [36]: 15.2 µM (inactive) | GI50 [37]: 16.8 µM (inactive) | GI50 [38]: 18.2 µM (inactive) | GI50 [39]: 15.6 µM (inactive) | GI50 [40]: 16.3 µM (inactive) | GI50 [41]: 12.2 µM (inactive) | GI50 [42]: 15.2 µM (inactive) | GI50 [43]: 18.2 µM (inactive) | GI50 [44]: 14.9 µM (inactive) | GI50 [45]: 12.9 µM (inactive) | GI50 [46]: 8.24 µM (inactive) | GI50 [47]: 16.6 µM (inactive) | GI50 [48]: 15.2 µM (inactive) | GI50 [49]: 15.7 µM (inactive) | GI50 [50]: 15.7 µM (inactive) | GI50 [51]: 13.3 µM (inactive) | GI50 [52]: 14.8 µM (inactive) | GI50 [53]: 13.5 µM (inactive) | GI50 [54]: 16.5 µM (inactive) | GI50 [55]: 15.5 µM (inactive) | GI50 [56]: 19.1 µM (inactive) | GI50 [57]: 0.678 µM (active) | GI50 [58]: 2.9 µM (inactive)
